Patent publication US20070059769A1, “High throughput glycan microarrays” (priority 2004, published 2007)
Where two headings read alike, the source gives them in different places.

Tests used:
[1] = system: anti-carbohydrate antibodies in sera of metastatic breast cancer patients; assay: glycan array binding of antibodies in sera of metastatic breast cancer patients; design: species or system human; details: sera diluted 1:25
Procedure: Individual (not pooled) sera were collected from 9 patients who were diagnosed with metastatic breast cancer (MBC). Blood samples were collected before treatment, so that therapeutic intervention would not interfere with patient immune responses. One patient with breast cancer but with good prognosis (IDC, Stage 1) was also included in the study. As control, or “healthy” sera, sera from ten healthy individuals, 5 female and 5 male, with no known malignancies was collected.
(§1) Sera were diluted 1:25 with PBS containing 3% BSA, and placed on the glycan array slide in humidified chamber at room temperature for 90 min. The glycan array slide was then rinsed gently with PBS/0.05% Tween, incubated with biotinylated goat antibody against human IgG, IgM and IgA, rinsed in PBS/0.05% Tween, and incubated with streptavidin-Alexa488 fluorescent dye. Following rinses in PBS/0.05% Tween and H2O, glycan array slides were dried and scanned using the commercial DNA array scanner. […] Signal to background was typically greater 50:1 and no background subtractions were performed. Data were plotted using MS Excel software.

[2] = system: 2G12; assay: glycan array binding of anti-HIV 2G12 monoclonal antibody; design: species or system human
[3] = target: Concanavalin A (Canavalia ensiformis, UniProt P02866); details: printing times up to 5 hours
Procedure: Glycan Binding Protein binding assay. Printed slides were analyzed without any further modification of the surface. […] GBP's were added at a concentration of 5-50 μg/mL in buffer (usually PBS containing 0.005-0.5% Tween-20). […] Slides were subsequently washed by successive rinses in (i) PBS-Tween (0.05%), (ii) PBS and (iii) de-ionized water, then immediately subjected to imaging.
Image acquisition and signal processing. Fluorescence intensities were detected using a ScanArray 5000 (Perkin Elmer, Boston, Mass.) confocal scanner and image analyses were carried out using ImaGene image analysis software (BioDiscovery Inc, El Segundo, Calif.). Signal to background was typically greater than 50:1 and no background subtractions were performed.
Binding of fluorescein-labeled concanavalin A (con A) was used as a measure of ligand coupling.

[4] = system: β3GlcNAcT; assay: β3GlcNAcT acceptor specificity; details: acceptor substrate; lactose (4) = 100%
Procedure: Both enzymes, β4GalT-GalE and β3GlcNAcT, were over expressed in E. coli AD202 in a large-scale fermentor (100 L). Bacteria were cultured in 2YT medium and induced with iso-propyl-thiogalactopyranoside (IPTG) to ultimately produce 8-10 g of bacterial cell paste/L cell media. The enzymes were then released from the cells by a microfluidizer and were solubilized in Tris buffer (25 mM, pH 7.5) containing manganese chloride (10 mM) and Triton X (0.25%) to reach enzymatic activities of about 50 U/L and 115 U/L of cell culture β4GalT-GalE and β3GlcNAcT, respectively.

[5] = system: serum antibodies of xenotransplant recipients; assay: glycan array binding of antibodies in sera of recipients of porcine fetal pancreas islet-like cell clusters; design: species or system human; details: before and 1, 6, 12 months after transplantation
Procedure: In 1991-1994, several diabetic (I) patients received transplantation of porcine fetal pancreas islet-like cell clusters (ICC). See, Groth, C. G. et al. Transplantation of porcine fetal pancreas to diabetic patients, The Lancet 344: 1402-4 (1994). The inventor analyzed serum from three of these patients before transplant (t=0), 1 months after (t=1), 6 months after (t=2) and 12 months after (t=3) transplant.
as §1, with “as needed” for “1:25”

[6] = target: T1, chST6GalNAc-I (Gallus gallus, UniProt Q92183); assay: chST6GalNAc-I activity on small acceptor molecules; type: biochemical, chicken; details: α-D-galacto derivative as acceptor
T1 construct: made in house; host or cells: insect cells
From the text: The inventors have previously reported the cloning, expression, and characterization of chicken ST6GalNAc-I and its use in preparative synthesis of the O-linked sialoside antigens, STn-, α(2-6)SiaT-, α(2-3)SiaT- and Di-SiaT-antigen. Blixt, O.; Allin, K.; Pereira, L.; Datta, A. and Paulson, J. C., J. Am. Chem. Soc. 2002, 124, 5739-5746. Briefly, the recombinant enzyme was expressed in insect cells and purified by CDP-sepharose affinity chromatography to generate approximately 10 U/L of cell culture.

T1 sequence (Q92183 whole entry): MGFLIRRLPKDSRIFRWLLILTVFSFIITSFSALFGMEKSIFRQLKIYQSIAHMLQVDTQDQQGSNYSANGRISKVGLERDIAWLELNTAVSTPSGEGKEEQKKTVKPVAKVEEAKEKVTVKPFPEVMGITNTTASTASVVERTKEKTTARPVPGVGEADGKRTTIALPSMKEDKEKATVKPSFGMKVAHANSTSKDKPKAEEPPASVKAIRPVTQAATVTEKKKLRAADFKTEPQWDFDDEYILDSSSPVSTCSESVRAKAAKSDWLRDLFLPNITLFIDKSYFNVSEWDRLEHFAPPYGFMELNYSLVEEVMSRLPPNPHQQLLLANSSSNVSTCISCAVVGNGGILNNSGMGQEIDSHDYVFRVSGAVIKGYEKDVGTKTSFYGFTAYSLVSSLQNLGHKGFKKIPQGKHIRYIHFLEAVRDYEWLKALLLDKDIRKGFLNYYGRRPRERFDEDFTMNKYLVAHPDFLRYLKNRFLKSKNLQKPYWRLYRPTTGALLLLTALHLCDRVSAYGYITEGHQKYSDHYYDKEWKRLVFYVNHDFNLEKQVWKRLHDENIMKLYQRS

Q: For Neu5Acα2-6GalNAcα-, which “binding by / level of serum antibodies in metastatic breast cancer patients versus healthy individuals” value [1] is on record?
A: significantly higher levels

Q: For CC(=O)N[C@H]1[C@H](O[C@H]2[C@@H](O)[C@@H](CO)O[C@@H](O[C@H]3[C@H](O)[C@@H](O)C(O)O[C@@H]3CO)[C@@H]2O)O[C@H](CO)[C@@H](O)[C@@H]1O (stereo partly drawn) [LNT-2, GlcNAc-beta3-Gal-beta4-Glc-beta], which “binding by / level of serum antibodies in metastatic breast cancer patients versus healthy individuals” value [1] is on record?
A: bind and higher than in the healthy individuals

Q: “Manα1-2Manα1-3(Manα1-2Manα1-6)ManαSp [Glycan 136]” was tested. Which “binding of 2G12” value [2] did it give?
A: strong binding

Q: And the “Rel. spec. (relative binding activity of 2G12)” value ([2]; 2G12 30 μg/mL pre-complexed with goat anti-human-IgG-FITC)?
A: +++ (+++ >25,000)

Q: And the “variation in maximal binding of con A” value [3]?
A: less than 10%

Q: Which “binding of 2G12” value [2] does the source give for “Manα1-6(Manα1-3)Manα1-6(Manα1-2Manα1-3)Manβ1-4GlcNAcβ1-4GlcNAcβSp [Glycan 142]” here?
A: did not support binding at all

Q: How did the “binding of 2G12” value [2] turn out when “Manα1-3Manα1-6(Manα1-2Manα1-3)Manβ1-4GlcNAcβ1-4GlcNAcβSp [Glycan 140]” was run?
A: did not support binding at all

Q: Which “Relative enzyme activity (%) β(1-3)GlcNAcT-activity” value [4] does the source give for Galβ(1-4)GlcNAc [Acceptor 6] here?
A: 7-8%

Q: Neu5Gc(2-6)GalNAc was tested. Which “binding by / level of serum antibodies in metastatic breast cancer patients versus healthy individuals” value [1] did it give?
A: bind

Q: Which “Relative enzyme activity (%) β(1-3)GlcNAcT-activity” value [4] does the source give for OCC1O[C@@H](O)C(O)[C@@H](O)[C@@H]1O[C@@H]1OC(CO)[C@H](O)[C@H](O)C1O (stereo partly shown) [Acceptor 4, Galβ(1-4)Glc] here?
A: 100%

Q: How did the “binding by / level of serum antibodies in metastatic breast cancer patients versus healthy individuals” value [1] turn out when “Gal-beta3-GalNAc-beta4-[Neu5Ac-alpha3]-Gal-beta4-Glc-beta [GM1]” was run?
A: bind and higher than in the healthy individuals

Q: For O=[N+]([O-])c1ccc(O[C@@H]2OC(CO)[C@@H](O[C@@H]3OC(CO)[C@H](O)[C@H](O)C3O)[C@H](O)C2O)cc1 (stereo partly shown) [Compound 5], which “Relative enzyme activity (%) β(1-3)GlcNAcT-activity” value [4] is on record?
A: 945%

Q: “Manα1-2Manα1-6(Manα1-3)Manα1-6(Manα1-2Manα1-3)Manβ1-4GlcNAcβ1-4GlcNAcβSp [Glycan 144]” was tested. Which “binding of 2G12” value [2] did it give?
A: strong preference

Q: “Manα1-2Manα1-2Manα1-3(Manα1-2Manα1-3(Manα1-2Manα1-6)Manα1-6)Manβ1-4GlcNAcβ1-4GlcNAcβSp [Glycan 145]” was tested. Which “binding of 2G12” value ([2]; listed as Man9) did it give?
A: relatively weakly bound

Q: What about the “binding of 2G12” value ([2]; listed as Man-9-N-glycans) of the same molecule?
A: smaller level of binding

Q: How did the “reactivity of serum antibodies of xenotransplant recipients” value [5] turn out when Galβ1-4(Fucα1-3)GlcNAcβSp [Glycan 65] was run?
A: do not have antibodies

Q: “Galα1-3Galβ1-4(Fucα1-3)GlcNAcβSp [Glycan 34]” was tested. Which “reactivity of serum antibodies of xenotransplant recipients” value [5] did it give?
A: clearly exhibit an immune response

Q: How did the “chST6GalNAc-I activity, cpm” value [6] turn out when CC(=O)N[C@H]1C(O)O[C@H](CO)[C@H](O)[C@@H]1O (stereo partly drawn) [D-GalNAc] was run?
A: 0 cpm

Q: What about the “chST6GalNAc-I activity, nmol/mg × min^−1” value [6] of the same molecule?
A: 0.00 nmol/mg × min^−1

Q: For “Manα1-6(Manα1-2Manα1-3)Manα1-6(Manα1-2Manα1-3)Manβ1-4GlcNAcβ1-4GlcNAcβSp [Glycan 143]”, which “binding of 2G12” value [2] is on record?
A: did not support binding at all

Q: With “Fucose-alpha2-Gal-beta3-GalNAc-beta3-Gal-alpha4-Gal-beta4-Glc [Globo-H]” as the molecule, how does the “binding by / level of serum antibodies in metastatic breast cancer patients versus healthy individuals” value [1] read?
A: bind and higher than in the healthy individuals

B1: Ceruloplasmine (protein, UniProt P00450 20-1065, looked up)
Ceruloplasmin: KEKHYYIGIIETTWDYASDHGEKKLISVDTEHSNIYLQNGPDRIGRLYKKALYLQYTDETFRTTIEKPVWLGFLGPIIKAETGDKVYVHLKNLASRPYTFHSHGITYYKEHEGAIYPDNTTDFQRADDKVYPGEQYTYMLLATEEQSPGEGDGNCVTRIYHSHIDAPKDIASGLIGPLIICKKDSLDKEKEKHIDREFVVMFSVVDENFSWYLEDNIKTYCSEPEKVDKDNEDFQESNRMYSVNGYTFGSLPGLSMCAEDRVKWYLFGMGNEVDVHAAFFHGQALTNKNYRIDTINLFPATLFDAYMVAQNPGEWMLSCQNLNHLKAGLQAFFQVQECNKSSSKDNIRGKHVRHYYIAAEEIIWNYAPSGIDIFTKENLTAPGSDSAVFFEQGTTRIGGSYKKLVYREYTDASFTNRKERGPEEEHLGILGPVIWAEVGDTIRVTFHNKGAYPLSIEPIGVRFNKNNEGTYYSPNYNPQSRSVPPSASHVAPTETFTYEWTVPKEVGPTNADPVCLAKMYYSAVEPTKDIFTGLIGPMKICKKGSLHANGRQKDVDKEFYLFPTVFDENESLLLEDNIRMFTTAPDQVDKEDEDFQESNKMHSMNGFMYGNQPGLTMCKGDSVVWYLFSAGNEADVHGIYFSGNTYLWRGERRDTANLFPQTSLTLHMWPDTEGTFNVECLTTDHYTGGMKQKYTVNQCRRQSEDSTFYLGERTYYIAAVEVEWDYSPQREWEKELHHLQEQNVSNAFLDKGEFYIGSKYKKVVYRQYTDSTFRVPVERKAEEEHLGILGPQLHADVGDKVKIIFKNMATRPYSIHAHGVQTESSTVTPTLPGETLTYVWKIPERSGAGTEDSACIPWAYYSTVDQVKDLYSGLIGPLIVCRRPYLKVFNPRRKLEFALLFLVFDENESWYLDDNIKTYSDHPEKVNKDDEEFIESNKMHAINGRMFGNLQGLTMHVGDEVNWYLMGMGNEIDLHTVHFHGHSFQYKHRGVYSSDVFDIFPGTYQTLEMFPRTPGIWLLHCHVTDHIHAGMETTYTVLQNEDTKSG
modifications: N-glycans
notes: mixture of bi and tri- and tetra-antenary N-glycans
Q: B1 was tested. Which “binding by / level of serum antibodies in metastatic breast cancer patients versus healthy individuals” value [1] did it give?
A: bind and significantly higher levels
